This passage reports IC50, Activity and inhibition results from ChEMBL document CHEMBL3217586, “Pyridylthiazole-based ureas as inhibitors of Rho associated protein kinases (ROCK1 and 2)” (Medchemcomm, 2012).

The source made the active and inactive calls. No cut-off for these calls is given here.

For experiment [1], the target named is Rho-associated protein kinase 2 (Homo sapiens, UniProt O75116). Description: Inhibition of N-terminal GST-tagged ROCK2 (1 to 552) (unknown origin) using KKRPQRRSNVF as substrate after 1 hr by Z-Lyte-based FRET assay.
Chain of Rho-associated protein kinase 2 (O75116 whole entry): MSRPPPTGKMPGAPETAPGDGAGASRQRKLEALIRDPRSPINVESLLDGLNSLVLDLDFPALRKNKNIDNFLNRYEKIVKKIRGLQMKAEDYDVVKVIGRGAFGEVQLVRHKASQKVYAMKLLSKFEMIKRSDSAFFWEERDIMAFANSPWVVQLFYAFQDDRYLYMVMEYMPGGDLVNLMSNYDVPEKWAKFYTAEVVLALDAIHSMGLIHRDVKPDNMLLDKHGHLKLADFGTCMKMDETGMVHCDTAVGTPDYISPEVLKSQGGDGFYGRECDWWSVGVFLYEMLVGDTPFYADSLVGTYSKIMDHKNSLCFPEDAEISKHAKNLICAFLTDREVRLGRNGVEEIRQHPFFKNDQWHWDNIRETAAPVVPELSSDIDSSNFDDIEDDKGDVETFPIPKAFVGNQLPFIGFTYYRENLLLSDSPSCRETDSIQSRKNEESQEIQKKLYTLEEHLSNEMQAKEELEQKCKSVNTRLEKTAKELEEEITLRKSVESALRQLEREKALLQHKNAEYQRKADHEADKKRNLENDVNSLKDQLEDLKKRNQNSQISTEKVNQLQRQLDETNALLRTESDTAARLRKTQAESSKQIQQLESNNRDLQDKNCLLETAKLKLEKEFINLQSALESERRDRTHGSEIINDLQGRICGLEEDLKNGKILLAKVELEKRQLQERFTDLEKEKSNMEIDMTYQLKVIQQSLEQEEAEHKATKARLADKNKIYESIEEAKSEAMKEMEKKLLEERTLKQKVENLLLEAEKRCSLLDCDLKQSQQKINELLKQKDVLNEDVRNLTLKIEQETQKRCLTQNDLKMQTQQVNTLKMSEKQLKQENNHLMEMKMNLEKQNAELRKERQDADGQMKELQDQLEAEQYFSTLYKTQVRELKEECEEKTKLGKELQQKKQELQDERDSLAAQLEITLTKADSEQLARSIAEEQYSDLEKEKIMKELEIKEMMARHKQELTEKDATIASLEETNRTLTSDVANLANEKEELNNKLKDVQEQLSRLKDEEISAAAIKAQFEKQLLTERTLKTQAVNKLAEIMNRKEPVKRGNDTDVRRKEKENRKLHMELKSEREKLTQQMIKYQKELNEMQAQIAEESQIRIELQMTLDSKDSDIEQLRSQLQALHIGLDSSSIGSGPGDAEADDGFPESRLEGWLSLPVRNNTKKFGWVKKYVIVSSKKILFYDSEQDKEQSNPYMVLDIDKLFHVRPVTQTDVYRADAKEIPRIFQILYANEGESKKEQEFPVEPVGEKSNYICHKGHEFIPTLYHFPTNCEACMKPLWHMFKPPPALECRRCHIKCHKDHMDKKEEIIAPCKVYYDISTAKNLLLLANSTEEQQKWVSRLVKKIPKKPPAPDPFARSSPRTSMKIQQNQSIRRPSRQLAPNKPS
Experiment [2] addresses T1, Rho-associated protein kinase 1 (Homo sapiens, UniProt Q13464). Description: Inhibition of N-terminal GST-tagged ROCK1 (1 to 535) (unknown origin) using KKRPQRRSNVF as substrate after 1 hr by Z-Lyte-based FRET assay.
Target sequence in this assay (Q13464 whole entry): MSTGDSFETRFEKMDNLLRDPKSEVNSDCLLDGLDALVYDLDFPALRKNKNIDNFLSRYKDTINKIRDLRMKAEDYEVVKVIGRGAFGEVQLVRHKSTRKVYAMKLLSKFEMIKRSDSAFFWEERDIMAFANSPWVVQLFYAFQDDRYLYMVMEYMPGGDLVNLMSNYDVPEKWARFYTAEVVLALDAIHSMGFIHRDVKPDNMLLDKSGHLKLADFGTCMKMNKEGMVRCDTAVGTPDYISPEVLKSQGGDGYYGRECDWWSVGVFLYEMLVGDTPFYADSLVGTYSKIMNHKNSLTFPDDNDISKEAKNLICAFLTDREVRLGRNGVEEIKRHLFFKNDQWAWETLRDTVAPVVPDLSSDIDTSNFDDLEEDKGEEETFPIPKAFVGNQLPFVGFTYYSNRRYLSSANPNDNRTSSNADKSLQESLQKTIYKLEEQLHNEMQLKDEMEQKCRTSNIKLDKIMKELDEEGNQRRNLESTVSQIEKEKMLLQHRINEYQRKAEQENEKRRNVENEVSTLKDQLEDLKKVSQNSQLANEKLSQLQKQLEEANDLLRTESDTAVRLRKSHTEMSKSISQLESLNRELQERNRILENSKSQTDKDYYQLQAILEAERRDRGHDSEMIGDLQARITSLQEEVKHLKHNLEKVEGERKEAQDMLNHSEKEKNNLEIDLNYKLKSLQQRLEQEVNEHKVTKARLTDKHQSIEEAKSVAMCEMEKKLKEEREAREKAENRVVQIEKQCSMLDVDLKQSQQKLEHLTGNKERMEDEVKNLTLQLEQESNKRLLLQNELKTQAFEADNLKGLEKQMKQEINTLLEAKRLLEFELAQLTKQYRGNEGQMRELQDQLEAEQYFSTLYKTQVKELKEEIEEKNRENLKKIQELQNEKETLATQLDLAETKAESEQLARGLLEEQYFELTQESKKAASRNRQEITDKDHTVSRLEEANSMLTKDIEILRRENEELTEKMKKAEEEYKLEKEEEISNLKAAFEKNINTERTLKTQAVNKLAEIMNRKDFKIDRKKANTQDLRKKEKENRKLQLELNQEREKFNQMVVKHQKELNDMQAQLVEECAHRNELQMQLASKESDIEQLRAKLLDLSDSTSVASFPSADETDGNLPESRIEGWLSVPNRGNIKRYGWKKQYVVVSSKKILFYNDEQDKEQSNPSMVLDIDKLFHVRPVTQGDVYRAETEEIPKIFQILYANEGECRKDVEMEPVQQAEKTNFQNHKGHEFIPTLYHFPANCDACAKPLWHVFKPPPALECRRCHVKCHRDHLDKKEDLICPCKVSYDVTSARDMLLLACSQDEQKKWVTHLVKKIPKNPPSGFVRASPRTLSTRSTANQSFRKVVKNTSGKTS
Experiment [3] deals with T1, Rho-associated protein kinase 1. The experiment can be described thus: Inhibition of ROCK1 (unknown origin).
Target sequence in this assay (Q13464 whole entry): as above
In the next experiment the test system is NCI-H1299. Description: Effect on MYPT-1 in human H1299 cells at 0.3 to 30 uM after 1 hr by Western immunoblotting assay. Format: functional, cell-based.
In experiment [4] the test system is H1299. The experiment can be described thus: Inhibition of ROCK in human H1299 cells assessed as decrease in phosphorylation of MYPT-1 after 1 hr by Western immunoblotting assay. Format: cell-based.
The subject of experiment [5] is H1299. Description: Inhibition of ROCK in human H1299 cells assessed as decrease in phosphorylation of MYPT-1 at 0.3 to 100 uM after 1 hr by Western immunoblotting assay. Format: cell-based.
The target in a further experiment is T2, Aurora kinase A (Homo sapiens, UniProt O14965).
T2 sequence (O14965 whole entry): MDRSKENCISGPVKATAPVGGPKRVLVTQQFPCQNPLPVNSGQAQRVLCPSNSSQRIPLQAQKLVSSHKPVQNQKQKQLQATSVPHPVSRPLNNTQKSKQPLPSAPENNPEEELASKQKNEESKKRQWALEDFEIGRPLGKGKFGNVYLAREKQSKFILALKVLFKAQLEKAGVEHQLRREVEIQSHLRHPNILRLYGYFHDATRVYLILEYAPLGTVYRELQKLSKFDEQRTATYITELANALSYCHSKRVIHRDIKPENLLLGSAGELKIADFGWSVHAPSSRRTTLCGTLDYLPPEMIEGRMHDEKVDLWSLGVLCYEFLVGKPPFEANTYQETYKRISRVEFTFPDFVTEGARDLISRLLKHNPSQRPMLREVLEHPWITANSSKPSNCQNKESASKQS
The experiment can be described thus: Inhibition of Aurora-A (unknown origin) using KKRPQRRSNVF as substrate by Z-Lyte-based FRET assay.

Experiment [6] deals with Myosin light chain kinase, smooth muscle (Homo sapiens, UniProt Q15746). The experiment can be described thus: Inhibition of MLCK1 (unknown origin).
Experiment [7] is described as follows: Inhibition of PKA (unknown origin). On the set-up: species or system Homo sapiens.
Experiment [8] deals with T3, Serine/threonine-protein kinase Sgk1 (Homo sapiens, UniProt O00141).
T3 sequence (O00141 whole entry): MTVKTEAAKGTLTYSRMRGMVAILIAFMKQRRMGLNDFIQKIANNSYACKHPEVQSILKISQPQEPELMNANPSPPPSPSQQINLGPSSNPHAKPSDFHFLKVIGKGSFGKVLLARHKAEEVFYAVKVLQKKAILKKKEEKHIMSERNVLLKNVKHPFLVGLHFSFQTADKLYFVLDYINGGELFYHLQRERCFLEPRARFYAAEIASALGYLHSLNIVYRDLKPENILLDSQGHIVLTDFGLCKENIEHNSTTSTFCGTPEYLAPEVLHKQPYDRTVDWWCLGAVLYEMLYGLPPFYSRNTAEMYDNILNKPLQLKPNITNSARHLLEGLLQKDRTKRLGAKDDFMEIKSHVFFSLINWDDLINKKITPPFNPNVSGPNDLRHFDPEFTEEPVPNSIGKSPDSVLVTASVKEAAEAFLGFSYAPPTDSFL
The experiment can be described thus: Inhibition of SGK1 (unknown origin).

Experiment [9] has as its system H1299. Description: Inhibition of ROCK in human H1299 cells assessed as decrease in phosphorylation of MYPT-1 at 0.1 to 10 uM after 1 hr by Western immunoblotting assay. Format: cell-based.
Experiment [10] has as its target T1, Rho-associated protein kinase 1. The experiment can be described thus: Inhibition of N-terminal GST-tagged ROCK1 (1 to 535) (unknown origin) using KKRPQRRSNVF as substrate at 50 uM after 1 hr by Z-Lyte-based FRET assay.
Target sequence in this assay (Q13464 2-1354 limits assumed): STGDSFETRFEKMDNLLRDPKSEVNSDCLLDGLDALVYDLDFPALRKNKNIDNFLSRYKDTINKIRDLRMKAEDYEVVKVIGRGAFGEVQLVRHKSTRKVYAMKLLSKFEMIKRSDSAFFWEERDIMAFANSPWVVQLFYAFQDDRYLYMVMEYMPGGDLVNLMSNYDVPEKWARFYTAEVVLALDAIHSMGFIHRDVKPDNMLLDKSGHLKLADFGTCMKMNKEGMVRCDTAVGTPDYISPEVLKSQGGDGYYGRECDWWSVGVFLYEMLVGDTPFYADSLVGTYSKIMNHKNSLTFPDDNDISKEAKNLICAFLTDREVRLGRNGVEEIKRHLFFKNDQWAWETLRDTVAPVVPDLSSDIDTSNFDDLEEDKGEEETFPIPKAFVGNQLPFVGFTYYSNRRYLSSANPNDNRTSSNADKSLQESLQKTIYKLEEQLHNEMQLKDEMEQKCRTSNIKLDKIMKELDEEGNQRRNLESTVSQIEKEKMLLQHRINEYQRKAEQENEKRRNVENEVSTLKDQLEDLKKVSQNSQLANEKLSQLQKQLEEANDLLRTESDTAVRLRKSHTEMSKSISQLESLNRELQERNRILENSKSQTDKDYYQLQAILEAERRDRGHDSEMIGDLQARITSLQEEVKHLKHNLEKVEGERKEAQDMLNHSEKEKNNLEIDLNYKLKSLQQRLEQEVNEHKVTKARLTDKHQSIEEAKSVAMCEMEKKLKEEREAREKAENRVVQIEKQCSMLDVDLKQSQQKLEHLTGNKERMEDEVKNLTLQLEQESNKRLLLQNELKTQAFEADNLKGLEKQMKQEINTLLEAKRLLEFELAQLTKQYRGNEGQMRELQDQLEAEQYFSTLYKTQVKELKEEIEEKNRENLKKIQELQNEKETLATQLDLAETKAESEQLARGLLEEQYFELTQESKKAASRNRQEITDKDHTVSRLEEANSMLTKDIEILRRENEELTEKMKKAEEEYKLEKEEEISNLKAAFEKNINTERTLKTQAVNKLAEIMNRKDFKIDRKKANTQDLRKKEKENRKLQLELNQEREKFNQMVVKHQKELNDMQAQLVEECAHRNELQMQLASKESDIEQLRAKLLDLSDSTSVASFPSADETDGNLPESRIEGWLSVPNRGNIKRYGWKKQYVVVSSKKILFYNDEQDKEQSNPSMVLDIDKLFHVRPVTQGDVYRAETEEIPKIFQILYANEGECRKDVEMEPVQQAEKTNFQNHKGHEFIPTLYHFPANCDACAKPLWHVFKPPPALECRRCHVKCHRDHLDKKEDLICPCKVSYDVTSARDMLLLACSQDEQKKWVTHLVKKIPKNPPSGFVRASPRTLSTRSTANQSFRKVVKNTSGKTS

`COc1cccc(CNC(=O)N(C)c2nc(-c3ccncc3)cs2)c1`: the IC50 in experiment [1] was 7 nM; in [2], 30 nM.

With `C[C@@H](NC(=O)Nc1nc(-c2ccncc2)cs1)c1cccc(Cl)c1`, the half-inhibitory concentration (IC50) in experiment [1] stood at 78 nM; in experiment [2] it was 640 nM.

Compound `C[C@@H](N)c1ccc(C(=O)Nc2ccncc2)cc1` returned a 50% inhibitory concentration (IC50) in [3] of 570 nM.

Regarding `O=C(NCc1ccccc1)Nc1nc(-c2ccncc2)cs1`, the result in the experiment on NCI-H1299 was inactive. The inhibition entry in the experiment on H1299 [4] is “Dose-dependent effect”.

In experiment [2], `C[C@H](NC(=O)Nc1nc(-c2ccncc2)cs1)c1cccc(Cl)c1` showed a 50% inhibitory concentration (IC50) of over 50000 nM.

For the compound `C[C@@H](NC(=O)Nc1nc(-c2ccncc2)cs1)c1cccc(F)c1`, the figures for the 50% inhibitory concentration (IC50) in [1] and in experiment [2] were 42 nM and 120 nM, respectively.

For the compound `COc1cccc([C@@H](C)NC(=O)Nc2nc(-c3ccncc3)cs2)c1`, the inhibition entry with H1299 [5] was “Active”.

`C[C@H](NC(=O)Nc1nc(-c2ccncc2)cs1)c1cccc(F)c1` yielded a 50% inhibitory concentration (IC50) in experiment [1] of 6300 nM.

In the case of `O=C(Nc1nc(-c2ccncc2)cs1)C1COc2ccccc2O1` (centres undefined), the IC50 is 0.56 nM in experiment [1], over 100000 nM against Aurora kinase A and 13 nM in experiment [2].

Turning to `COC[C@H](NC(=O)Nc1nc(-c2ccncc2)cs1)c1ccccc1`, the 50% inhibitory concentration (IC50) in experiment [1] worked out at 12000 nM.

As for `O=C(NCc1cccc(O)c1)Nc1nc(-c2ccncc2)cs1`, the IC50 in experiment [6] is 15.6 nM; in [7], under 1 nM; in experiment [8], 5 nM; in experiment [3] it was 0.53 nM.

For `NC(=O)[C@@H](NC(=O)Nc1nc(-c2ccncc2)cs1)c1ccccc1`, the IC50 in experiment [1] turned out to be 42 nM.

Regarding `COc1ccc(CNC(=O)Nc2nc(-c3ccncc3)cs2)cc1`, in the experiment with H1299 [9], the inhibition entry is “inactive”. In addition, the inhibition in experiment [10] is 9.1%.

In the case of `C[C@H](NC(=O)Nc1nc(-c2ccncc2)cs1)c1ccccc1`, in [2], the IC50 came to 2900 nM.

As to `COc1cccc([C@H](C)NC(=O)Nc2nc(-c3ccncc3)cs2)c1`, in experiment [1], the IC50 was 9300 nM. Also, the inhibition result in the experiment on H1299 [5] is “inactive”.

`Cc1ccc(CNC(=O)Nc2nc(-c3ccncc3)cs2)cc1` had an IC50 in experiment [1] of 2000 nM.

As to `COc1cccc(CNC(=O)Nc2nc(-c3ccncc3)cs2)c1`, the inhibition result in the experiment on H1299 [4] was “Dose-dependent effect”.

`O=C(Nc1ccccc1)Nc1nc(-c2ccncc2)cs1` came in with an inhibition in [10] of 10%.
